Measured values published in patent US20240197635A1, “DISSOCIATING POLYMER MATRIX COMPOSITIONS OF FULVESTRANT AND METHODS OF THEIR MAKING AND USE” (VeraMorph LLC, priority 2021, published 2024).

Assay: In vitro dissolution of fulvestrant-loaded DPODs in simulated gastric fluid
Conditions: aqueous dissolution media
Procedure: The exact time of release can vary from 5 minutes to 120 minutes, with the capability to dissolve in less than 60 minutes and in less than 30 minutes and in less than 20 minutes depending on the exact pH. These parameters can be controlled by modifying the extent of drug loading and the composition of the DPOD.

C[C@]12CC[C@@H]3c4ccc(O)cc4C[C@@H](CCCCCCCCC[S+]([O-])CCCC(F)(F)C(F)(F)F)[C@H]3[C@@H]1CC[C@@H]2O (stereo partly drawn) [fulvestrant, 7α-[9-[(4,4,5,5,5-Pentafluoropentyl)-sulfinyl]nonyl]estra-1,3,5(10)-triene-3,17β-diol]
saturation concentration of fulvestrant: 2 µg/mL
